pIC50: −log10 of the molar value. Where two headings read alike, the source gives them in different places.
How the values were obtained:
[1] = target: BRD4 (BD1+BD2) bromodomain (Homo sapiens (Human), UniProt O60885); experiment: BRD4 binding inhibition (AlphaScreen, GST-BRD4 vs tetraacetylated histone H4 peptide)
In short: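 AlphaScreen read after 30 min dark incubation at room temperature with glutathione acceptor/streptavidin donor beads (10 μg/ml each). The beads were added to compound plus 100 nM biotin-H4 (K5,8,12,16-acetyl) peptide and 100 nM GST-BRD4 BD1+BD2 in pH 7.4 HEPES/Tween/BSA/DTT buffer.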

[2] = system: acute myelogenous leukemia cells (MV-4-11 cells); experiment: Cytotoxicity to acute myelogenous leukemia cells (MV-4-11 cells), CCK-8
[3] = GST-BRD4 (BD1+BD2) / biotinylated acetyl-histone H4 (Lys5,8,12,16) peptide, read-out: IC50, BRD4 binding inhibition
[4] = GST-BRD4 (BD1+BD2) vs biotinylated acetyl-histone H4 peptide, AlphaScreen, read-out: BRD4 IC50
[5] = Homo sapiens, MV4-11, 72 h, read-out: MV-4-11 Cytotoxicity IC50
[6] = Homo sapiens, MV4-11, 72 h, read-out: IC50, cytotoxicity against acute myelogenous leukemia cells

`COCCOc1ccc2c(c1)nc(NCCCCNC(=O)c1ccccc1)c1nnc(C)n12` [Example 408, N-{4-[7-(2-methoxy-ethoxy)-1-methyl-[1,2,4]triazolo[4,3-a]quinoxaline-4-ylamino]-butyl}-benzamide] was tested, and the pIC50 [1, 3] was ≥ 7.30, the pIC50 [1, 4] was 7.89 and the pIC50 [2, 5] was 6.21.

For `Cc1nnc2c(NCCCCNC(=O)[C@@H](NC(=O)OC(C)(C)C)C(C)C)nc3cc(N4CCOCC4)ccc3n12` [Example 502, (S)-{2-methyl-1-[4-(1-methyl-7-morpholine-4-yl-[1,2,4]triazolo[4,3-a]quinoxaline-4-ylamino)-butylcarbamoyl]-propyl}-carbamic acid-tert-butylester], the pIC50 [1, 3] was ≥ 7.30, the pIC50 [1, 4] was 7.52 and the pIC50 [2, 5] was 6.48.

For `COc1cccc2c1nc(NCCCCNC(=O)OC(C)(C)C)c1nnc(C)n12` [Example 117, [4-(6-methoxy-1-methyl-[1,2,4]triazolo[4,3-a]quinoxaline-4-ylamino)-butyl]-carbamic acid-tert-butylester], the pIC50 [1, 4] was 7.19 and the pIC50 [2, 5] was 6.43.

With `Cc1nnc2c(NCCCCNC(=O)[C@@H](F)C(C)C)nc3cc(N4CCOCC4)ccc3n12` [Example 500, 2-(S)-fluoro-3-methyl-N-[4-(1-methyl-7-morpholine-4-yl-[1,2,4]triazolo[4,3-a]quinoxaline-4-ylamino)-butyl]-butyramide] the pIC50 [1, 3] was ≥ 7.30, the pIC50 [1, 4] was 7.40 and the pIC50 [2, 6] was ≥ 6.70. It also gave a pIC50 [2, 5] of 7.01.

In the case of `CCC(C)OC(=O)NCCCCNc1nc2cc(OC)ccc2n2c(C)nnc12` (stereo not shown) [Example 280, [4-(7-methoxy-1-methyl-[1,2,4]triazolo[4,3-a]quinoxaline-4-ylamino)-butyl]-carbamic acid-sec-butylester], the pIC50 [1, 3] was ≥ 7.30, the pIC50 [1, 4] was 7.85 and the pIC50 [2, 6] was ≥ 6.70. The pIC50 [2, 5] was 7.40.

For `Cc1nnc2c(NCCCCNC(=O)[C@@H](NC(=O)OCC(C)C)C(C)C)nc3cc(N4C[C@@H](C)O[C@@H](C)C4)ccc3n12` [Example 515, (S)-(1-{4-[7-(2,6-dimethyl-morpholine-4-yl)-1-methyl-[1,2,4]triazolo[4,3-a]quinoxaline-4-ylamino]-butylcarbamoyl}-2-methyl-propyl)-carbamic acid isobutylester], the pIC50 [1, 3] was ≥ 7.30, the pIC50 [2, 6] was ≥ 6.70 and the pIC50 [2, 5] was 7.05.

In the case of `COc1cc2c(cc1C)nc(NCCCCNC(=O)[C@@H](O)C(C)C)c1nnc(C)n12` [Example 153, 2-(S)-hydroxy-N-[4-(8-methoxy-1,7-dimethyl-[1,2,4]triazolo[4,3-a]quinoxaline-4-ylamino)-butyl]-3-methyl-butyramide], the pIC50 [1, 3] was ≥ 7.30, the pIC50 [1, 4] was 7.80 and the pIC50 [2, 5] was 6.34.

With `CCc1nnc2c(NCCCCNC(=O)OCC(C)C)nc3cc(OC)ccc3n12` [Example 624, [4-(7-methoxy-1-ethyl-[l,2,4]triazolo[4,3-a]quinoxaline-4-ylamino)-butyl]-carbamic acid isobutylester] the pIC50 [1, 3] was ≥ 7.30, the pIC50 [1, 4] was 7.80 and the pIC50 [2, 5] was 6.39.

`CCC(F)(F)C(=O)NCCCCNc1nc2cc(OC)ccc2n2c(C)nnc12` [Example 294, 2,2-difluoro-N-[4-(7-methoxy-1-methyl-[1,2,4]triazolo[4,3-a]quinoxaline-4-ylamino)-butyl]-butyramide] was tested, and the pIC50 [1, 3] was ≥ 7.30, the pIC50 [1, 4] was 7.82 and the pIC50 [2, 5] was 6.69.

In the case of `COc1cc2nc(NCCCCNC(=O)CC(C)C)c3nnc(C)n3c2cc1NC(=O)Cc1ccccc1` [Example 564], the pIC50 [1, 3] was ≥ 8.00, the pIC50 [1, 4] was 8.05 and the pIC50 [2, 5] was 6.21.

In the case of `COc1cc2nc(NCCCCNC(=O)CC(C)C)c3nnc(C)n3c2cc1NO` [Example 558, N-[4-(8-hydroxyamino-7-methoxy-1-methyl-[1,2,4]triazolo[4,3-a]quinoxaline-4-ylamino)-butyl]-3-methyl-butyramide], the pIC50 [1, 4] was 7.24, the pIC50 [2, 6] was ≥ 6.70 and the pIC50 [2, 5] was 7.06.

For `COc1cc2nc(NCCCCNC(=O)CCC3CCCC3)c3nnc(C)n3c2cc1OC` [Example 81, 3-cyclopentyl-N-[4-(7,8-dimethoxy-1-methyl-[1,2,4]triazolo[4,3-a]quinoxaline-4-ylamino)-butyl]-propionamide], the pIC50 [1, 3] was ≥ 8.00, the pIC50 [1, 4] was 8.00 and the pIC50 [2, 6] was ≥ 6.70. The pIC50 [2, 5] was 7.00.

With `COc1ccc2c(c1)nc(NCCCCC(=O)NCc1ccco1)c1nnc(C)n12` [Example 657] the pIC50 [1, 3] was ≥ 7.30, the pIC50 [1, 4] was 7.80 and the pIC50 [2, 6] was ≥ 6.70. The pIC50 [2, 5] was 7.10.

With `CCOc1ccc2c(c1)nc(NCCCCNC(=O)Cc1cccs1)c1nnc(C)n12` [Example 446, N-[4-(7-ethoxy-1-methyl-[1,2,4]triazolo[4,3-a]quinoxaline-4-ylamino)-butyl]-2-thiophene-2-yl-acetamide] the pIC50 [1, 3] was ≥ 7.30, the pIC50 [1, 4] was 7.92 and the pIC50 [2, 6] was ≥ 6.70. The pIC50 [2, 5] was 8.00.

In the case of `Cc1nnc2c(NCCCCNC(=O)[C@@H](NC(=O)OC(C)(C)C)C(C)C)nc3cc(N4C[C@@H](C)O[C@@H](C)C4)ccc3n12` [Example 513, (S)-{2-methyl-1-[4-(1-methyl-7-(2,6-dimethyl-morpholine-4-yl)-[1,2,4]triazolo[4,3-a]quinoxaline-4-ylamino)-butylcarbamoyl]-propyl}-carbamic acid-tert-butylester], the pIC50 [1, 3] was ≥ 7.30, the pIC50 [1, 4] was 7.72 and the pIC50 [2, 5] was 6.55.

`COc1ccc2c(c1)nc(NCCCCNC(=O)CC(C)(C)C)c1nnc(C)n12` [Example 287, N-[4-(7-methoxy-1-methyl-[1,2,4]triazolo[4,3-a]quinoxaline-4-ylamino)-butyl]-3,3-dimethyl-butyramide] was tested, and the pIC50 [1, 4] was 7.17, the pIC50 [2, 6] was ≥ 6.70 and the pIC50 [2, 5] was 6.90.

`CCC(C)CNC(=O)CCCCNc1nc2cc(OC)c(OC)cc2n2c(C)nnc12` (stereo not shown) [Example 649, 5-(7,8-dimethoxy-1-methyl-[1,2,4]triazolo[4,3-a]quinoxaline-4-ylamino)-pentanoic acid-(2-methyl-butyl)-amide] was tested, and the pIC50 [1, 3] was ≥ 7.30, the pIC50 [1, 4] was 7.64 and the pIC50 [2, 6] was ≥ 6.70. For the same molecule, the pIC50 [2, 5] was 6.80.

`COc1ccc2c(c1)nc(NCCCCNC(=O)[C@H](O)C(C)C)c1nnc(C)n12` [Example 298, 2-(R)-hydroxy-N-[4-(7-methoxy-1-methyl-[1,2,4]triazolo[4,3-a]quinoxaline-4-ylamino)-butyl]-3-methyl-butyramide] was tested, and the pIC50 [1, 3] was ≥ 8.00, the pIC50 [1, 4] was 8.40 and the pIC50 [2, 5] was 6.57.

`COc1cc2nc(NCCCCNC(=O)OC(C)C)c3nnc(C(C)C)n3c2cc1OC` [Example 601, [4-(1-isopropyl-7,8-dimethoxy-[1,2,4]triazolo[4,3-a]quinoxaline-4-ylamino)-butyl]-carbamic acid isopropylester] showed a pIC50 [1, 4] of 7.25 and a pIC50 [2, 5] of 6.64.

`COc1ccc2c(c1)nc(NCCCCNC(=O)C=C(C)C)c1nnc(C)n12` [Example 284, 3-methyl-butene-2-oic acid-[4-(7-methoxy-1-methyl-[1,2,4]triazolo[4,3-a]quinoxaline-4-ylamino)-butyl]-amide] was tested, and the pIC50 [1, 3] was ≥ 8.00, the pIC50 [1, 4] was 8.05 and the pIC50 [2, 6] was ≥ 6.70. The pIC50 [2, 5] was 6.76.

In the case of `CSc1ccc2c(c1)nc(NCCCCNC(=O)OC(C)(C)C)c1nnc(C)n12` [Example 354, [4-(1-methyl-7-methylsulfanyl-[1,2,4]triazolo[4,3-a]quinoxaline-4-ylamino)-butyl]-carbamic acid-tert-butylester], the pIC50 [1, 4] was 7.25 and the pIC50 [2, 5] was 6.33.

With `Cc1nnc2c(NCCCCNC(=O)c3ccccc3)nc3ccc(OC(F)(F)F)cc3n12` [Example 267, N-[4-(1-methyl-8-trifluoromethoxy-[1,2,4]triazolo[4,3-a]quinoxaline-4-ylamino)-butyl]-benzamide] the pIC50 [1, 3] was ≥ 7.30, the pIC50 [1, 4] was 7.41 and the pIC50 [2, 5] was 6.24.

With `CCC(C)CC(=O)NCCCCNc1nc2cc(OC)ccc2n2c(C(F)(F)F)nnc12` (stereo not shown) [Example 591, 3-methyl-pentanoic acid-[4-(7-methoxy-1-trifluoromethyl-[1,2,4]triazolo[4,3-a]quinoxaline-4-ylamino)-butyl]-amide] the pIC50 [1, 3] was ≥ 7.30, the pIC50 [1, 4] was 7.55 and the pIC50 [2, 5] was 6.06.

“benzoic acid 1-methyl-4-[4-(3-methyl-butylamino)-butylamino]-[1,2,4]triazolo[4,3-a]quinoxaline-7-yl ester [Example 350]” was tested, and the pIC50 [1, 3] was ≥ 7.30, the pIC50 [1, 4] was 7.48 and the pIC50 ([2]; read-out: IC50, cytotoxicity against acute myelogenous leukemia cells, MV-4-11 cells, 72 hours, CCK-8) was ≥ 6.70. The pIC50 ([2]; read-out: MV-4-11 Cytotoxicity IC50, MV-4-11 cells, 72 hours, CCK-8) was 7.15.

`COc1ccc2c(c1)nc(NCCCCNC(=O)[C@@H](NC(=O)OC(C)C)C(C)C)c1nnc(C)n12` [Example 320, (S)-{1-[4-(7-methoxy-1-methyl-[1,2,4]triazolo[4,3-a]quinoxaline-4-ylamino)-butylcarbamoyl]-2-methyl-propyl}-carbamic acid isopropylester] was tested, and the pIC50 [1, 3] was ≥ 8.00, the pIC50 [1, 4] was 8.40 and the pIC50 [2, 5] was 6.17.

`Cc1nnc2c(NCCCCNC(=O)OC(C)C)nc3cc(OCCN4CCOCC4)ccc3n12` [Example 436, {4-[1-methyl-7-(2-morpholine-4-yl-ethoxy)-[1,2,4]triazolo[4,3-a]quinoxaline-4-ylamino]-butyl}-carbamic acid isopropylester] was tested, and the pIC50 [1, 3] was ≥ 7.30, the pIC50 [1, 4] was 7.74 and the pIC50 [2, 6] was ≥ 6.70. For the same molecule, the pIC50 [2, 5] was 6.80.

In the case of `CCCOC(=O)NCCCCNc1nc2cc(OC)c(OC)cc2n2c(C)nnc12` [Example 64, [4-(7,8-dimethoxy-1-methyl-[1,2,4]triazolo[4,3-a]quinoxaline-4-ylamino)-butyl]-carbamic acid propylester], the pIC50 [1, 3] was ≥ 7.30, the pIC50 [1, 4] was 7.70 and the pIC50 [2, 6] was ≥ 6.70. For the same molecule, the pIC50 [2, 5] was 6.92.

— patent US11028090B2 (Dong Wha Pharm. Co., Ltd., priority 2017, dated 2021)
